{
  "source": "patent US10815231B2",
  "about": "“[1,2,4] triazolo [1,5-a] pyridine derivative and crystalline form thereof” (WEST CHINA HOSPITAL, SICHUAN UNIVERSITY, priority 2016, dated 2020)",
  "key": {"A549 cells": {"system": "A549 cells", "assay": "MTT detection method, inhibitory effect against A549 cells", "format": "cell-based", "settings": "5000 cells/well, treatment 48 h; for The mean inhibitory ratio (%): mean of three; for The inhibitory ratio (%) for three parallel assays: single parallel assays", "excerpt": "(§1) MTT detection method was used, and MTT is a yellow compound and a dye accepting hydrogen ions, and can be used as the respiratory chain in mitochondria of viable cells. Under the action of succinate dehydrogenase and cytochrome C, the tetrazolium ring broke to form blue formanzan crystal, and the formation amount of formanzan crystal was only directly proportional to the viable counts. The formanzan crystal formed by reduction can dissolve in dimethyl sulfoxide (DMSO), and the optical density (OD) value can be determined at 490 nm using ELISA, to reflect the viable counts.\n(§2) Lung cancer cell lines: A549 and H1299.\n(§3) Experimental materials: lung cancer cell lines, instruments and tools for cell culture, MTT, and the compound mother liquid (10 mmol/L).\n(§4) (3-1) Cell lines A549 and H1299 were recovered, and when the cells were in good conditions, namely cells grew to about 80% after one passage (i.e. the logarithmic growth phase), the cells were planked (96-well plate).\n(§5) (3-2) Firstly, cells were collected, and the concentration of cell suspension was adjusted with counting chamber. Cells were seeded in 96-well plate at 1000-10000 cells/well, and the detailed cell numbers in each well were dependent on the growth rate of different cells and the action time of drugs. A549 cells were seeded at 5000 cells, while H1299 cells were also seeded at 5000 cells, 200 μl for each well (100 μl cell suspension+100 μl drug dilution at different concentration gradient). The edge wells (36) were added 200 μl culture media (for prevention of edge effect).\n(§6) (3-3) After planking and adding drugs, the plate was treated at 24 h, 48 h, and 72 h, and then for coloration, each well was added 200 μl culture media containing 20 μl MTT solution (5 mg/mL). The plate was continually cultured for 1-4 hours, and the culture supernatant fluid in each well was carefully absorbed. For suspension cells, the culture supernatant fluid in each well need be centrifuged before drawing. 150 μl DMSO was added to each well, and the plate was shaken on a shaking table for 15-20 min, to allow the crystals to be completely dissolved.\n(§7) (3-4) Colorimetry: The colorimetry was performed by ELISA, and the optical absorption value of each well was tested at a wavelength of 490 nm or 570 nm, and the result was recorded.\n(§8) (3-5) Calculation Inhibition ratio=(the control−the drug)/the control×100%\n(§9) IC50 (50% inhibitory concentration) can be calculated by spass software based on the inhibitory ratio at different concentration."}, "H1299 cells": {"system": "H1299 cells", "assay": "MTT detection method, inhibitory effect against H1299 cells", "format": "cell-based", "settings": "5000 cells/well, treatment 48 h; for The mean inhibitory ratio (%): mean of three; for The inhibitory ratio (%) for three parallel assays: single parallel assays", "excerpt": "as §1, §2, §3, §4, §5, §6, §7, §8, §9"}},
  "note": "Values joined by “and” are separate entries in the source; they are usually repeats but may differ in a detail not shown here. Identical values can stand only once.",
  "data": [
    {"smiles": "Nc1nc2cccc(-c3ccc(CN4CCOCC4)cc3)n2n1", "note": "[Compound 1, 2-amino-5-[4-(4-morpholinylmethyl)phenyl]-[1,2,4]triazolo[1,5-a]pyridine]", "values": [
      {"measurement": "The mean inhibitory ratio (%)", "setting": "A549 cells; 25 μm", "value": 10, "unit": "%"},
      {"measurement": "The inhibitory ratio (%) for three parallel assays", "setting": "A549 cells; 25 μm", "value": "10% and 9%"},
      {"measurement": "The mean inhibitory ratio (%)", "setting": "A549 cells; 50 μm", "value": 29, "unit": "%"},
      {"measurement": "The inhibitory ratio (%) for three parallel assays", "setting": "A549 cells; 50 μm", "value": "28% and 31% and 29%"},
      {"measurement": "The mean inhibitory ratio (%)", "setting": "A549 cells; 100 μm", "value": 31, "unit": "%"},
      {"measurement": "The inhibitory ratio (%) for three parallel assays", "setting": "A549 cells; 100 μm", "value": "31% and 30%"},
      {"measurement": "The mean inhibitory ratio (%)", "setting": "H1299 cells; 25 μm", "value": 62, "unit": "%"},
      {"measurement": "The inhibitory ratio (%) for three parallel assays", "setting": "H1299 cells; 25 μm", "value": "63% and 61%"},
      {"measurement": "The mean inhibitory ratio (%)", "setting": "H1299 cells; 50 μm", "value": 95, "unit": "%"},
      {"measurement": "The inhibitory ratio (%) for three parallel assays", "setting": "H1299 cells; 50 μm", "value": "93% and 94% and 97%"},
      {"measurement": "The mean inhibitory ratio (%)", "setting": "H1299 cells; 100 μm", "value": 85, "unit": "%"},
      {"measurement": "The inhibitory ratio (%) for three parallel assays", "setting": "H1299 cells; 100 μm", "value": "86% and 84%"}
    ]},
    {"smiles": "Ic1nc2cccc(-c3ccc(CN4CCOCC4)cc3)n2n1", "note": "[Compound 2, 2-iodo-5-[4-(4-morpholinylmethyl)phenyl]-[1,2,4]triazolo[1,5-a]pyridine]", "values": [
      {"measurement": "The mean inhibitory ratio (%)", "setting": "A549 cells; 25 μm", "value": 27, "unit": "%"},
      {"measurement": "The inhibitory ratio (%) for three parallel assays", "setting": "A549 cells; 25 μm", "value": "26% and 25% and 30%"},
      {"measurement": "The mean inhibitory ratio (%)", "setting": "A549 cells; 40 μm", "value": 22, "unit": "%"},
      {"measurement": "The inhibitory ratio (%) for three parallel assays", "setting": "A549 cells; 40 μm", "value": "21% and 22%"},
      {"measurement": "The mean inhibitory ratio (%)", "setting": "A549 cells; 50 μm", "value": 24, "unit": "%"},
      {"measurement": "The inhibitory ratio (%) for three parallel assays", "setting": "A549 cells; 50 μm", "value": "23% and 27%"},
      {"measurement": "The mean inhibitory ratio (%)", "setting": "H1299 cells; 50 μm", "value": 31, "unit": "%"},
      {"measurement": "The inhibitory ratio (%) for three parallel assays", "setting": "H1299 cells; 50 μm", "value": "32% and 31% and 29%"},
      {"measurement": "The mean inhibitory ratio (%)", "setting": "H1299 cells; 80 μm", "value": 33, "unit": "%"},
      {"measurement": "The inhibitory ratio (%) for three parallel assays", "setting": "H1299 cells; 80 μm", "value": "33% and 32%"},
      {"measurement": "The mean inhibitory ratio (%)", "setting": "H1299 cells; 100 μm", "value": 31, "unit": "%"},
      {"measurement": "The inhibitory ratio (%) for three parallel assays", "setting": "H1299 cells; 100 μm", "value": "32% and 29%"}
    ]},
    {"smiles": "N#Cc1nc2cccc(-c3ccc(CN4CCOCC4)cc3)n2n1", "note": "[Compound 3, 2-cyano-5-[4-(4-morpholinylmethyl)phenyl]-[1,2,4]triazolo[1,5-a]pyridine]", "values": [
      {"measurement": "The mean inhibitory ratio (%)", "setting": "A549 cells; 25 μm", "value": 22, "unit": "%"},
      {"measurement": "The inhibitory ratio (%) for three parallel assays", "setting": "A549 cells; 25 μm", "value": "20% and 26%"},
      {"measurement": "The mean inhibitory ratio (%)", "setting": "A549 cells; 40 μm", "value": 22, "unit": "%"},
      {"measurement": "The inhibitory ratio (%) for three parallel assays", "setting": "A549 cells; 40 μm", "value": "22% and 24% and 20%"},
      {"measurement": "The mean inhibitory ratio (%)", "setting": "A549 cells; 50 μm", "value": 25, "unit": "%"},
      {"measurement": "The inhibitory ratio (%) for three parallel assays", "setting": "A549 cells; 50 μm", "value": "24% and 27%"},
      {"measurement": "The mean inhibitory ratio (%)", "setting": "H1299 cells; 50 μm", "value": 32, "unit": "%"},
      {"measurement": "The inhibitory ratio (%) for three parallel assays", "setting": "H1299 cells; 50 μm", "value": "33% and 32%"},
      {"measurement": "The mean inhibitory ratio (%)", "setting": "H1299 cells; 80 μm", "value": 32, "unit": "%"},
      {"measurement": "The inhibitory ratio (%) for three parallel assays", "setting": "H1299 cells; 80 μm", "value": 32, "unit": "%"},
      {"measurement": "The mean inhibitory ratio (%)", "setting": "H1299 cells; 100 μm", "value": 34, "unit": "%"},
      {"measurement": "The inhibitory ratio (%) for three parallel assays", "setting": "H1299 cells; 100 μm", "value": "33% and 34% and 35%"}
    ]}
  ]
}
